These results are taken from patent US9669049B2, “Compositions comprising gamma retrovirus vectors and methods of treating proliferative disorders” (Tocagen Inc., priority 2010, dated 2017).

The test system of data set [1] is recurrent anaplastic oligodendroglioma. The experiment in a line: Patient dog with spontaneous recurrent malignant glioma. In kind it is in vivo. The note with it: second cycle, 160 mg/kg/day, after fifth day. The procedure:
The tumor measured approximately 13 cm^3, and caused major lateral ventricle compression and significant midline shift. […] ProHance® (gadoteridol) was added to Toca 511 prior to injection to allow visualization of delivery by MRI. The volume of distribution of the vector was estimated to be approximately 10-12% of the tumor volume.
The dog was treated with 5-FC at a divided dose of 130 mg/kg/day, by mouth, three times daily with food for 5 days. The dose was increased to 160 mg/kg/day for 2 more days (7 days of 5-FC total). […] After 21 days of viral spread, a second cycle of 5-FC was initiated at the higher dose of 160 mg/kg/day (divided, three times a day with food).
The subject became more alert, active and remained clinically stable 13 weeks after injection of vector. The subject succumbed to a gastro-intestinal bleed at 15+ weeks, related to the extended administration of high dose steroids, and unrelated to the tumor. The estimated lifespan of the dog was no more than 3-4 weeks at the time of initial injection of the vector.

The subject of data set [2] is RRV.
Data set [3] relates to cultured human glioma cells. It is filed as cell-based. Also noted: key: +: positive or negative effects have been observed.
The test system of data set [4] is cultured human plasmacytoid dendritic cells. The experiment in a line: IFN production after in vitro stimulation of cultured human plasmacytoid dendritic cells. In kind it is cell-based. Also noted: key: +: positive or negative effects have been observed; −: positive or negative effects have been observed.
Data set [5] deals with Tu2449 cells. In words: Bortezomib plus vector, intracranial Tu2449 glioma survival. It is filed as in vivo, mouse. The note with it: Bortezomib 1 mg/kg IP every 7 days; vector 6.3E4 TU/g IC; 5-FC cycles. As for the experimental part: On Day 0 and every 7 days, Groups 3 and 4 received Bortezomib treatment (1 mg/kg; 25 μg/mouse) IP. […] Survival was assessed for at least 4 cycles.

The subject of data set [6] is cultured human glioma cells. In words: Initial viral spread in cultured human glioma cells by flow cytometric analysis. It is filed as cell-based. (In general: Flow cytometry measures light scatter and fluorescence of single cells or particles in a stream.)
Data set [7] has as its system TLR3, 7, 8, 9. The following applies: cited from earlier work.
Data set [8] concerns U-87MG. The following applies: 0.1 and 1 μM, 28 days.
The test system of data set [9] is T98G. The note with it: 0.1 and 1 μM, 28 days.
Data set [10] has as its system intracranial tumor models. The experiment in a line: In vivo screening, IC tumor model. The note with it: mouse.
Data set [11] in a line: Pilot study of white blood cell count suppression. It is filed as in vivo. The following applies: 400 mg/kg SC. As for the experimental part:
(§1) Dosing Procedures. For Group 3 only, methylprednisolone acetate (Depo-Medrol), 400 mg/kg, was administered subcutaneously (SC) at day −3.

The nature of data set [12]: Vector copies in tissues after intracranial injection with or without steroid. It is filed as in vivo, mouse. The following applies: right cerebrum, day 10; p<0.0001. As for the experimental part: as §1
Toca 511 or vehicle was administered by stereotaxic injection into the right frontal lobe. After anesthetizing the mice and preparing the skull, a small burr hole was drilled through the bone at coordinates AP=+0.5 mm and ML=−2.5 mm from bregma. […] After a hold of 5 minutes, the syringe was withdrawn, the hole sealed with bone wax, the skin closed, and the animal recovered from surgery. To minimize discomfort, ketoprofen was administered SC.
Tissue collection. On day 10, all animals were euthanized and selected tissues and fluids collected using disposable equipment to minimize possible cross-contamination of vector negative by vector positive tissues. […] Assays were performed in triplicate.

The subject of data set [13] is parental CT26 cells. The experiment in a line: Viral replication kinetics in CT26 cells with exogenous IFNα. The note with it: 1,340 units/mL daily; MOI 0.1 and 1.
The test system of data set [14] is parental Tu2449 cells. In words: Viral replication kinetics in Tu2449 cells with exogenous IFNβ. The note with it: 500 units/mL daily; MOI 0.1 and 1.

Like-named read-outs stand apart in the source and are kept apart here.

Turning to `Nc1nc(=O)[nH]cc1F` [5-FC, 5-fluorocytosine], the “adverse event stopping the drug” value in data set [1] was “development of rash”.

On to `O=C(NCCCNc1nc(Nc2cccc(NC(=O)N3CCCC3)c2)ncc1I)c1cccs1` [BX795], for which the “activity or benefit observed in the screening experiments” value (“activity or benefit observed” below) in data set [2] is “activity was observed”. Moreover, in data set [3], the Efficacy result is “+”. Consider `CC(C)C[C@H](NC(=O)[C@H](Cc1ccccc1)NC(=O)c1cnccn1)B(O)O` [Bortezomib], for which the “activity or benefit observed” value in data set [2] was “activity was observed”. In addition, the Efficacy entry in [4] was “+”. Moreover, the “survival of Bortezomib and vector compared to vector, vehicle, or Bortezomib alone” value in data set [5] is “statistically significant survival advantage”. Regarding `C#Cc1cccc(Nc2ncnc3cc(OC)c(OCCCCCCC(=O)NO)cc23)c1` [CUDU-101], the Efficacy entry in data set [6] was “−”. With `CCN(CC)CCCC(C)Nc1ccnc2cc(Cl)ccc12` (centres unmarked) [Chloroquine], the IC50 in [7] (read-out: Dosage/IC50, head does not say whether dosage or IC50) was 20 µM. Also, the Dosage/IC50 in data set [7] (same value in mass units) was 10 µg/mL.

Turning to `N#CCNC(=O)c1ccc(-c2ccnc(Nc3ccc(N4CCOCC4)cc3)n2)cc1` [Cyt387], the Efficacy result in data set [6] is listed as “−”. On to `C[C@@H]1C[C@H]2[C@@H]3CCC4=CC(=O)C=C[C@]4(C)[C@@]3(F)[C@@H](O)C[C@]2(C)[C@@]1(O)C(=O)CO` [Dexamethasone], for which the cell toxicity entry in data set [8] and in [9] was “No cell toxicity was observed” each time. In [6], the Efficacy result was “+”. In the case of `Cc1cc(Cl)ccc1OCCCC(=O)NO` [Droxinostat], the Efficacy entry in [6] is “−”. Still for that read-out and setting: for `CCN(CC)Cc1ccc2cc(COC(=O)Nc3ccc(C(=O)NO)cc3)ccc2c1` [ITF2357] the value was “−”; for `O=C1Nc2ccc3ncsc3c2/C1=C/c1cnc[nH]1` [Imidazolo-oxindole], “−”.

In the case of `CCc1c2c(nc3ccc(OC(=O)N4CCC(N5CCCCC5)CC4)cc13)-c1cc3c(c(=O)n1C2)COC(=O)[C@]3(O)CC` [Irinotecan], the “Outcome summary IC tumor model” value in data set [10] is given as “No survival improvement”. In the case of `Nc1ccccc1NC(=O)c1ccc(CNC(=O)OCc2cccnc2)cc1` [MS-275], in data set [2], the “activity or benefit observed” value is “activity was observed”. Moreover, the Efficacy entry is listed as “−” in data set [6] and “+” in data set [3]. As to `CC#C[C@]1(O)CC[C@H]2[C@@H]3CCC4=CC(=O)CCC4=C3[C@@H](c3ccc(N(C)C)cc3)C[C@@]21C` [Mifepristone], the “activity or benefit observed” value in data set [2] is “activity was observed”. Besides, the Efficacy result in [6] is given as “+”. For `CC(=O)OCC(=O)[C@@]1(O)CC[C@H]2[C@@H]3C[C@H](C)C4=CC(=O)C=C[C@]4(C)[C@H]3[C@@H](O)C[C@@]21C` [methylprednisolone acetate], the “duration of white blood cell count suppression below normal range” value in data set [11] is “at least 10 days”. Also, in data set [12], the “increase of vector copies with steroids over no steroid” value is recorded as “more than 40 fold”. Consider IFNα, for which the “effect on viral spread (% GFP positive cells)” value in data set [13] is on record as “attenuates viral spread”.

B1: IFNβ: Recombinant mouse IFNβ (PBL Interferon Source) (protein, UniProt P01575 22-182, looked up)
Interferon beta: INYKQLQLQERTNIRKCQELLEQLNGKINLTYRADFKIPMEMTEKMQKSYTAFAIQEMLQNVFLVFRNNFSSTGWNETIVVRLLDELHQQTVFLKTVLEEKQEERLTWEMSSTALHLKSYYWRVQRYLKLMKYNSYAWMVVRAEIFRNFLIIRRLTRNFQN
For B1, the “effect on viral spread (% GFP positive cells)” value in data set [14] is recorded as “attenuates viral spread”.
